These results are taken from patent US5516797A, “Immunosuppressive compounds” (Vertex Pharmaceuticals, Incorporated, priority 1994, dated 1996).

As usually defined, the IC50 is the concentration at which inhibition is half-maximal.

Molecules are shown by their SMILES.

Experiment [1] relates to PBLs stimulated with JVM human viral transformed B lymphoblastoid cells. The experiment can be described thus: MLR bioassay JVM: inhibition of proliferation in mixed lymphocyte reaction. It counts as cell-based. As to conditions: Lymphoblastoid cell, pulsed on day 6, harvested 24 h later. Summed up:
(§1)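 Fresh human PBLs (5×10^4) stimulated with 5×10^3 Mitomycin C-treated allogeneic EBV-transformed B lymphoblastoid cells in RPMI 1640 with 10% FCS, with or without compound (DMSO stocks). Pulsed on day 6, harvested 24 h later and counted.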

The subject of experiment [2] is human peripheral blood lymphocytes. The experiment is described as follows: Mitogenesis assay OKT3: inhibition of proliferation of human PBLs. As to conditions: Lymphocyte, OKT3 (10^-4 dilution final), 48 h incubation. Type of experiment: cell-based. The procedure, abridged:
(§2)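 Human PBLs from normal donors, isolated over Histopaque 1077 and cultured in RPMI 1640 with 10% heat-inactivated FCS, were stimulated with PMA or OKT3 mitogen in the presence of compound (DMSO stocks). After 48 h at 37 °C and 5% CO2, cells were pulsed with 1 μCi ³H-thymidine and harvested 24 h later for scintillation counting.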

Experiment [3] deals with T1, FK-506 binding protein (FKBP) (Homo sapiens, UniProt P62942). The experiment is described as follows: Competitive binding to FKBP against [3H]dihydro-FK-506 (apparent Kd). The note with it: competition with [3H]dihydro-FK-506.
T1 sequence (P62942 whole entry): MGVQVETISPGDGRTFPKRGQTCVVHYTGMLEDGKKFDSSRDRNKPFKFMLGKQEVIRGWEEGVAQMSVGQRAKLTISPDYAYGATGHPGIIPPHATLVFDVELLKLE
Experiment [4] relates to human peripheral blood lymphocytes. The experiment is described as follows: Mitogenesis assay PMA: inhibition of proliferation of human PBLs. It counts as cell-based. The note with it: Lymphocyte, PMA (10 ng/ml) plus ionomycin (250 ng/ml), 48 h incubation. The procedure, abridged:
as §2

In experiment [5] the target is T1, FK-506 binding protein (FKBP). The experiment can be described thus: Inhibition of PPIase (rotamase) enzyme activity of FKBP (apparent Ki). It counts as biochemical. The note with it: substrate N-succinylAla-Ala-Pro-Phe-p-nitroanilide, chymotrypsin-coupled. The procedure, abridged: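 Cis-trans isomerization of N-succinyl-Ala-Ala-Pro-Phe-p-nitroanilide was followed spectrophotometrically in a chymotrypsin-coupled assay releasing 4-nitroanilide from the trans substrate. Apparent Ki came from the change in first-order rate constant across inhibitor concentrations.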

Experiment [6] relates to PBLs stimulated with LB human viral transformed B lymphoblastoid cells. The experiment is described as follows: MLR bioassay LB: inhibition of proliferation in mixed lymphocyte reaction. It counts as cell-based. The note with it: Lymphoblastoid cell, pulsed on day 6, harvested 24 h later. Summed up: as §1

With `O=C(C(=O)N1CCCC[C@H]1C(=O)OCc1cccc(Oc2ccccc2)c1)c1ccccc1` [Compound 62], the IC50 in experiment [1] was above 10 µM; in experiment [2] it was above 10 µM; in experiment [4] it was 6.5 µM; in experiment [6], above 10 µM. In experiment [3], the Kd is 0.15 µM. Moreover, the Ki in experiment [5] came to 0.09 µM.
On to `O=C(C(=O)N1CCCC[C@H]1C(=O)OCCCCc1ccccc1)c1cccc(-c2ccccc2)c1` [Compound 96], for which the IC50 in experiment [1], in experiment [2], in experiment [4] and in experiment [6] was above 10 µM in each case. Also, the Kd in experiment [3] was 0.033 µM. Further, in experiment [5], the Ki worked out at 0.04 µM.
Consider `O=C(C(=O)N1CCCC[C@H]1C(=O)OCc1ccccc1)c1ccccc1` [Compound 3, (S)-Benzyl N-(phenylglyoxyl)pipecolate], for which the IC50 in experiment [1] was above 10 µM; in experiment [2] it was 4.6 µM; in experiment [4], 7.6 µM; in experiment [6], above 10 µM. In addition, in experiment [3], the Kd was above 2 µM.
Turning to `COc1ccc(/C=C/C(=O)N(C)[C@H](C(=O)OCc2ccccc2)C(C)C)cc1` [Compound 130], the Kd in experiment [3] was above 20 µM. Also, the Ki in experiment [5] worked out at 30 µM.
As to `COC(=O)C(=O)N(C)[C@@H](C)C(=O)OCc1ccccc1` [Compound 125], the Kd in experiment [3] is above 200 µM. Besides, the Ki in experiment [5] was found to be 400 µM.
Turning to `CN(C)c1ccc(/C=C/C(=O)N2CCCC[C@H]2C(=O)OCc2ccccc2)cc1` [Compound 116], the Kd in experiment [3] is above 5 µM. In addition, the Ki in experiment [5] is 20 µM.
As to `COC(=O)C(=O)N1CCCC[C@H]1C(=O)OC/C(C)=C/[C@H]1CC[C@@H](O)CC1` [Compound 39], in experiment [3], the Kd is above 20 µM. Also, the Ki in experiment [5] worked out at 70 µM.
As to `C=CCOC(=O)[C@@H]1CCCCN1C(=O)C(=O)OC` [Compound 30], in experiment [3], the Kd was above 25 µM. Also, in experiment [5], the Ki was 190 µM.
As for `O=C(OCc1ccccc1)[C@@H]1CCCCN1C(=O)/C=C/c1ccc([N+](=O)[O-])cc1` [Compound 117], the Kd in experiment [3] is above 5 µM. Moreover, the Ki in experiment [5] was 14 µM.
On to `O=C(C(=O)N1CCCC[C@H]1C(=O)OCc1ccccc1)c1ccccn1` [Compound 17], for which, in experiment [3], the Kd is above 1000 µM. In addition, the Ki in experiment [5] came to 130 µM.
Consider `COc1cccc(OC)c1C(=O)C(=O)N1CCCC[C@H]1C(=O)OCc1ccccc1` [Compound 12], for which, in experiment [3], the Kd amounted to 25 µM. The Ki in experiment [5] stood at 50 µM.
In the same order, the values of `COc1ccccc1C(=O)C(=O)N1CCCC[C@H]1C(=O)OCc1ccccc1` [Compound 8] are above 75 µM and 17 µM.
As for `COc1ccc(CCCCOC(=O)[C@@H]2CCCCN2C(=O)C(=O)c2cc(OC)c(OC)c(OC)c2)cc1` [Compound 85], the IC50 in experiment [1] was found to be 10 µM; in experiment [2] it was 4.5 µM; in experiment [4], 4.5 µM; in experiment [6], 7 µM. For the same compound, in experiment [3], the Kd turned out to be 0.049 µM.
For the compound `COC(=O)C(=O)N1CCC[C@H]1C(=O)OC(C)(C)C` [Compound 29], the Kd in experiment [3] is above 500 µM. Further, the Ki in experiment [5] turned out to be 600 µM.
In the case of `O=C(C(=O)N1CCCC[C@H]1C(=O)OCc1ccccc1)c1cccc([N+](=O)[O-])c1` [Compound 15], in experiment [3], the Kd is above 75 µM. For the same compound, in experiment [5], the Ki was found to be 160 µM.
In the same order, the values of `COC(=O)C(=O)N(C)CC(=O)OCc1ccccc1` [Compound 124] are above 200 µM and 1000 µM.
`COc1cc(/C=C/C(=O)N2CCC[C@H]2C(=O)OCc2ccccc2)cc(OC)c1OC` [Compound 115]: the Kd in experiment [3] is above 25 µM. Moreover, the Ki in experiment [5] turned out to be 450 µM.
Regarding `O=C(C(=O)N1CCCC[C@H]1C(=O)OCc1ccccc1)c1cccc[n+]1[O-]` [Compound 18], in experiment [3], the Kd came to 10 µM. For the same compound, the Ki in experiment [5] is above 500 µM.
As for `COc1cc(C(=O)C(=O)N2CCCC[C@H]2C(=O)OCCCCc2ccccc2)cc(OC)c1OC` [Compound 63], the concentration for half-maximal inhibition (IC50) in experiment [1] was 8.5 µM; in experiment [2] it was 3.1 µM; in experiment [4], 6 µM; in experiment [6], 10 µM. In experiment [3], the Kd is 0.1 µM.
